Source: patent US9255272B2, “Use of inhibitors of leukotriene B4 receptor BLT2 for treating asthma” (Korea University Research & Business Foundation, priority 2007, dated 2016)

Key:
BLT2 mRNA = BLT2 mRNA in Rat2-BLT2 stable cells (RT-PCR); format: cell-based; settings: transient transfection, 24 h
Protocol: Suppressed BLT2 expression level was determined by RT-PCR. Rat2-BI_T2 stable cells were plated at a density of 5×10^4 cells/plate on 6 well plates. After 24 hr, cells were transiently transfected with BLT2 specific antisense and sense oligonucleotide plasmid with Lipofectamin reagent and then incubated in fresh DMEM supplemented with 10% FBS for an additional 24 h. After additional incubation, the transfected cells were harvested for BLT2 transcripts analysis. Total RNA was reverse-transcribed and PCR amplify were performed with BLT2 forward primer: 5′-[…]-3′ (SEQ ID NO: 23) and reverse primer: 5′-[…]-3′ (SEQ ID NO: 24). Non-transfected Rat2-BLT2 stable cells cDNA was used the negative control and GAPDH was shown as internal control.

Rac = test: Endogenous Rac expression in lung tissue (Western blot); format: in vivo, mouse; settings: oligonucleotides injected into tail veins, mice sacrificed after 12 hr
Source text: FIGS. 10a and 10b show activation of Rac in the lung tissue by OVA provocation and inhibition of endogenous Rac expression by antisense Rac oligonucleotide treatment. Lung samples were homogenized with micropestle and washed with PBS twice. FIG. 10a depicts Western blot analysis of Rac expression in mouse model of asthma. For membrane protein preparation, cells were suspended in Buffer A and cells were ruptured by passing through 21-G syringe. After ultracentrifugation, protein samples in pelleted membrane fraction were dissolved with buffer A containing 1% Triton X-100. FIG. 10b depicts Western blot analysis of Rac expression in mouse model of asthma administered with asRac. For whole cell lysate preparation, cells from the lung tissues of buffer, control Rac oligonucleotide or antisense Rac oligonucleotide injected mice were suspended with lysis buffer and incubated for 20 min. After centrifugation of the samples, protein quantification was carried out using Bradford reagent and Western blot analysis was performed.
Oligonucleotides, from Genotech Co. (Korea), were synthesized with a phosphorothioate backbone to improve the resistance to endonuclease. The antisense oligonucleotide consisted of 17 nucleotides analogues to the 5′ end of the murine Rac mRNA sequence, which spans the translation initiation site. […]

OVA-challenged mice = test: Eosinophil infiltration in BAL fluid of OVA-challenged mice; format: in vivo, mouse; settings: C57BL/6 mice, 1.6 mg/kg i.v. 24 hr and 1 hr before 10% OVA challenge, 48 hr
Protocol: (§1) Female BALB/c mice and C57BL/6 mice (7 weeks old; 18-20 g) were obtained from Orientbion Inc. (Seoungnam, Korea). Sensitization and challenge were carried out as described previously with some modification (28). Briefly, female C57BL/6 mice (7 weeks old; 18-20 g) were immunized by intraperitoneal (i.p.) injection of 200 μg ovalbumin (OVA) emulsified in 2.5 mg of adjuvant aluminum hydroperoxide gel (alum) (Pierce, Rockford, Ill.). A second i.p. injection of 20 μg OVA adsorbed onto alum (2.5 mg) was administered 10 days later. After an additional 10 days, mice were exposed to an aerosol of 1% OVA in saline for 30 min daily on 3 consecutive days. On day 25, mice were finally challenged by provocation with 10% OVA aerosol. For inhibition experiments, sense or antisense BLT2 (1.6 mg/kg) was injected intravenously 24 h and then 1 h before the 10% OVA challenge. The mice were then killed on day 27 to assess asthmatic phenotypes. Antisense BLT2 oligonucleotide (5′-[…]-3′ (SEQ ID NO: 15)), sense BLT2 oligonucleotide (5′-[…]-3′ (SEQ ID NO: 16)).
Inflammatory cells in the BAL fluid were collected by centrifugation (1,000 g for 3 min) and washed once in PBS. Cells were counted using a hemocytometer, and viability was assessed by trypan blue exclusion. […]

ROS = ROS levels in BAL fluid cells (DCF fluorescence, FACS); format: in vivo, mouse; settings: 1.6 mg/kg i.v. 24 hr and 1 hr before 10% OVA; BAL fluid 48 h after challenge
Protocol: as §1
ROS levels in BAL fluids were measured as a function of DCF fluorescence as described previously (30). […] DCF fluorescence was excited at 488 nm and the evoked emission was filtered with a 515-nm long-pass filter. […]

BLT2 antisense oligonucleotide: BLT2 specific antisense oligonucleotide plasmid transfected into Rat2-BLT2 stable cells (antisense CAGCAGTGTCTCGTT; listed as DNA, chemistry not given here)
level of BLT2 mRNA by RT-PCR (BLT2 mRNA): reduced

control Rac: control oligonucleotide of same nucleotide composition, 5′-GATCAGTGCACACAGTG-3′ (SEQ ID NO: 21) (listed as DNA, chemistry not given here) [reference compound]
endogenous expression of Rac in the lung tissues (Rac): didn't show significant effect

sense BLT2: sense BLT2 oligonucleotide 5′-GGAATGAGACACTACTGAGC-3′ (SEQ ID NO: 16) (listed as DNA, chemistry not given here) [reference compound]
effect on eosinophil infiltration in BAL fluids (in words) (OVA-challenged mice): no inhibitory effect | effect on ROS levels in BAL fluid (in words) (ROS): not
